Reference: US10874743B2, “IRAK degraders and uses thereof” (Kymera Therapeutics, Inc., priority 2017, dated 2020)

Molecular target: T1, IRAK4 (Homo sapiens, UniProt Q9NWZ3)
T1 sequence (Q9NWZ3 1-460): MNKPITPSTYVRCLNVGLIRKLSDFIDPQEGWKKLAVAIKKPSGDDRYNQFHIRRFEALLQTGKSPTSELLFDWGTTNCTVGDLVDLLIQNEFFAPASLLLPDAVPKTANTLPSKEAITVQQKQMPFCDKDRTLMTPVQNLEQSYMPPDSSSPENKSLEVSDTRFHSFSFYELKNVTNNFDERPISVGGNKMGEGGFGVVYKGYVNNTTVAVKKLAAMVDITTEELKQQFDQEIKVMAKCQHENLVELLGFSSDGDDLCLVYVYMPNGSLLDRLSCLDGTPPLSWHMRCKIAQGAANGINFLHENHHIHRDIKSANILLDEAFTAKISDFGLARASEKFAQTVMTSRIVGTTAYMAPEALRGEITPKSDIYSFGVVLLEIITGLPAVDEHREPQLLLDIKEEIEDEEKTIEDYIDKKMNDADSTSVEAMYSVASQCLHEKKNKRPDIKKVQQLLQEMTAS
Assay: OCI-LY-10 degradation assay (western blot, % IRAK4 degraded after 4 hours)
Type: cell-based
Parameters: endogenous in cells; host or cells: OCI-LY10
Conditions: OCI-LY10 cells; for OCI-LY10 % IRAK4 Degradation: IRAK4 degraded after 4 hours, western blot; for OCI-LY10 % IRAK4 Degradation (0.01 uM) / OCI-LY10 % IRAK4 Degradation (0.1 uM) / OCI-LY10 % IRAK4 Degradation (1 uM): 4 hours; for OCI-LY10 % IRAK4 Degradation (0.01 uM): 0.01 uM compound; for OCI-LY10 % IRAK4 Degradation (0.1 uM): 0.1 uM compound; for OCI-LY10 % IRAK4 Degradation (1 uM): 1 uM compound
Method in brief: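 IRAK4 loss after 4 h at 37° C was scored A (>50%), B (>20-50%) or C (<20%) from infrared western blots of RIPA lysates, 20-25 μg protein per lane. Compound was applied at 0.003-10 μM final to OCI-LY10 cells cultured in RPMI-1640 with 20% FBS and 55 μM 2-ME.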

SMILES | OCI-LY10 % IRAK4 Degradation | OCI-LY10 % IRAK4 Degradation (0.01 uM) | OCI-LY10 % IRAK4 Degradation (0.1 uM) | OCI-LY10 % IRAK4 Degradation (1 uM)
NC(=O)[C@@H](O)C[C@H]1CCc2sc3ncnc(OC4CCC(N5CCN(C(=O)COCCOCCNc6cccc7c6C(=O)N(C6CCC(=O)NC6=O)C7=O)CC5)CC4)c3c21 (stereo partly drawn) [I-160, (2S)-3-[(8R)-1-[4-[4-[2-[2-[2-[[2-(2,6-dioxo-3-piperidyl)-1,3-dioxo-isoindolin-4-yl]amino]ethoxy]ethoxy]acetyl]piperazin-1-yl]cyclohexoxyl-7,8-dihydro-6H-cyclopenta[4,5]thieno 1,2-c]pyrimidin-8-yl]-2-hydroxy-propanamide] | C (<20% degradation) |  |  | 
N#Cc1cnc2c(cnn2-c2cc(NC3CC3)c(-c3cn(CCOCCOCCOCCOCCOCCNc4cccc5c4C(=O)N(C4CCC(=O)NC4=O)C5=O)nn3)cn2)c1 (stereo not drawn) [I-176, 1-[4-(Cyclopropylamino)-5-[1-[2-[2-[2-[2-[2-[2-[[2-(2,6-dioxo-3-piperidyl)-1,3-dioxo-isoindolin-4-yl]amino]ethoxy]ethoxy]ethoxy]ethoxy]ethoxy]ethyl]triazol-4-yl]-2-pyridyl]pyrazolo[3,4-b]pyridine-5-carbonitrile] | C (<20% degradation) |  |  | 
Cc1ncsc1-c1ccc(CNC(=O)[C@@H]2C[C@@H](O)CN2C(=O)[C@@H](NC(=O)COCCOCCOCCOCCOCCN2CCC(Nc3cccc(-c4cnc5ccc(C#N)cn45)n3)C2)C(C)(C)C)cc1 (stereo partly drawn) [I-209] | C (<20% degradation) |  |  | 
N#Cc1cnc2c(cnn2-c2cc(NC3CC3)c(C(=O)N[C@H]3C[C@H](C(=O)NCCOCCOCCNc4cccc5c4C(=O)N(C4CCC(=O)NC4=O)C5=O)C3)cn2)c1 (stereo partly drawn) [I-27, 6-(5-cyano-1H-pyrazolo[3,4-b]pyridin-1-yl)-4-(cyclopropylamino)-N-((1R,3R)-3-((2-(2-(2-((2-(2,6-dioxopiperidin-3-yl)-1,3-dioxoisoindolin-4-yl)amino)ethoxy)ethoxy)ethyl)carbamoyl)cyclobutyl)nicotinamide] | C (<20% degradation) |  |  | 
NC(=O)c1nn(-c2ccc(CNCCCCCOCCCc3cccc4c3C(=O)N(C3CCC(=O)NC3=O)C4=O)cc2)cc1NC(=O)c1coc(-c2ccnc(NCC3CC3)c2)n1 (stereo not drawn) [I-311] |  | C (<20% degradation) | A (>50% degradation) | A (>50% degradation)
CC(OCCOCCOCCNc1cccc2c1C(=O)N(C1CCC(=O)NC1=O)C2=O)C(F)CNC(=O)c1cnc(-n2ncc3cc(C#N)cnc32)cc1NC1CC1 (stereo not drawn) [I-63] | C (<20% degradation) |  |  | 
O=C1CCC(N2C(=O)c3cccc(NCCOCC(F)CNC(=O)c4cnc(Nc5ccc6cnccc6n5)cc4NC4CC4)c3C2=O)C(=O)N1 (stereo not drawn) [I-81] | C (<20% degradation) |  |  | 
CC(C)(OCCOCCNC(=O)COc1cccc2c1C(=O)N(C1CCC(=O)NC1=O)C2=O)C(F)CNC(=O)c1cnc(-n2ncc3cc(C#N)cnc32)cc1NC1CC1 (stereo not drawn) [I-101] | C (<20% degradation) |  |  | 
Cc1ncsc1-c1ccc(CNC(=O)[C@@H]2C[C@@H](O)CN2C(=O)[C@@H](NC(=O)COCCOCCOCCNC(=O)c2ccc(-n3cc(NC(=O)c4coc(-c5ccnc(NCC(F)(F)F)c5)n4)c(C(N)=O)n3)cc2)C(C)(C)C)cc1 [I-115] | B (>20-50% degradation) |  |  | 
CN(CCCc1cccc2c1C(=O)N(C1CCC(=O)NC1=O)C2=O)Cc1ccc(-n2cc(NC(=O)c3coc(-c4ccncc4)n3)c(C(F)F)n2)cc1 (stereo not drawn) [I-365] |  | C (<20% degradation) | C (<20% degradation) | C (<20% degradation)
O=C1CCC(N2C(=O)c3ccc(NC4CCN(CCOCCOCCNCc5ccc(-n6cc(NC(=O)c7coc(-c8ccnc(NCC9CC9)c8)n7)c(C(F)F)n6)cc5)CC4)cc3C2=O)C(=O)N1 (stereo not drawn) [I-335] |  | C (<20% degradation) | C (<20% degradation) | A (>50% degradation)
N#Cc1cnc2c(cnn2-c2cc(NC3CC3)c(C(=O)N[C@H]3CC[C@H](COCCOCCOCCOCCOCCNc4cccc5c4C(=O)N(C4CCC(=O)NC4=O)C5=O)CC3)cn2)c1 (stereo partly drawn) [I-33] | C (<20% degradation) |  |  | 
Cn1c(=O)n(C2CCC(=O)NC2=O)c2ccc(CCCOCCOCCNCc3ccc(-n4cc(NC(=O)c5coc(-c6ccnc(NCC(F)(F)F)c6)n5)c(C(N)=O)n4)cc3)cc21 (stereo not drawn) [I-327] |  | C (<20% degradation) | B (>20-50% degradation) | A (>50% degradation)
CC(C)(OCCOCCOCCOCCOCCNc1cccc2c1C(=O)N(C1CCC(=O)NC1=O)C2=O)C(F)CNC(=O)c1cnc(Nc2ccc3cnccc3n2)cc1NC1CC1 (stereo not drawn) [I-64] | C (<20% degradation) |  |  | 
NC(=O)c1nn(-c2ccc(C(=O)NCC3CN(CCOCCNc4cccc5c4C(=O)N(C4CCC(=O)NC4=O)C5=O)CCO3)cc2)cc1NC(=O)c1coc(-c2ccnc(NCC(F)(F)F)c2)n1 (stereo not drawn) [I-151] | A (>50% degradation) |  |  | 
N#Cc1cnc2c(cnn2-c2cc(NC3CC3)c(C(=O)N[C@H]3CC[C@H](COCCOCCOCCNc4cccc5c4C(=O)N(C4CCC(=O)NC4=O)C5=O)CC3)cn2)c1 (stereo partly drawn) [I-32] | C (<20% degradation) |  |  | 
N#Cc1cnc2c(cnn2-c2cc(NC3CC3)c(C(=O)NCC(F)COCCCCCNC(=O)COc3cccc4c3C(=O)N(C3CCC(=O)NC3=O)C4=O)cn2)c1 (stereo not drawn) [I-102] | C (<20% degradation) |  |  | 
NC(=O)[C@@H](O)C[C@H]1CCc2sc3ncnc(O[C@H]4CC[C@H](N5CCN(C(=O)COCCNc6cccc7c6C(=O)N(C6CCC(=O)NC6=O)C7=O)CC5)CC4)c3c21 (stereo partly drawn) [I-153] | C (<20% degradation) |  |  | 
CC(C)(OCCNc1cccc2c1C(=O)N(C1CCC(=O)NC1=O)C2=O)C(F)CNC(=O)c1cnc(Nc2ccc3cnccc3n2)cc1NC1CC1 (stereo not drawn) [I-74] | C (<20% degradation) |  |  | 
N#Cc1cnc2c(cnn2-c2cc(NC3CC3)c(C(=O)N[C@H]3CC[C@H](COCCOCCOCCNc4cccc5c4C(=O)N(C4CCC(=O)NC4=O)C5=O)C3)cn2)c1 (stereo partly drawn) [I-35] | C (<20% degradation) |  |  | 
CN(CCCCCNCCCc1cccc2c1C(=O)N(C1CCC(=O)NC1=O)C2=O)C(=O)c1ccc(-n2cc(NC(=O)c3coc(-c4ccnc(NCC5CC5)c4)n3)c(C(N)=O)n2)cc1 (stereo not drawn) [I-315] |  | C (<20% degradation) | C (<20% degradation) | B (>20-50% degradation)
CN(CCOCCOCCCc1cccc2c1C(=O)N(C1CCC(=O)NC1=O)C2=O)C(=O)c1ccc(-n2cc(NC(=O)c3coc(-c4ccncc4)n3)c(C(N)=O)n2)cc1 (stereo not drawn) [I-226] |  | B (>20-50% degradation) | A (>50% degradation) | A (>50% degradation)
CC(C)(OCCOCCNc1cccc2c1C(=O)N(C1CCC(=O)NC1=O)C2=O)C(F)CNC(=O)c1cnc(Nc2ccc3cnccc3n2)cc1NC1CC1 (stereo not drawn) [I-80] | C (<20% degradation) |  |  | 
O=C1CCC(N2C(=O)c3cccc(NCCOCCN4CCO[C@H](CNCc5ccc(-n6cc(NC(=O)c7coc(-c8ccnc(NCC9CC9)c8)n7)c(C(F)F)n6)cc5)C4)c3C2=O)C(=O)N1 (stereo partly drawn) [I-330] |  | C (<20% degradation) | A (>50% degradation) | A (>50% degradation)
N#Cc1cnc2c(cnn2-c2cc(NC3CC3)c(C(=O)N[C@H]3C[C@H](C(=O)NCCOCCOCCOCCOCCNc4cccc5c4C(=O)N(C4CCC(=O)NC4=O)C5=O)C3)cn2)c1 (stereo partly drawn) [I-21, 6-(5-cyano-1H-pyrazolo[3,4-b]pyridin-1-yl)-4-(cyclopropylamino)-N-((1r,3r)-3-((14-((2-(2,6-dioxopiperidin-3-yl)-1,3-dioxoisoindolin-4-yl)amino)-3,6,9,12-tetraoxatetradecyl)carbamoyl)cyclobutyl)nicotinamide] | C (<20% degradation) |  |  | 
O=C1CCC(N2C(=O)c3cccc(NCCOCCOCCNC(=O)[C@H]4C[C@H](NC(=O)c5cnc(Nc6ccc7cnccc7n6)cc5NC5CC5)C4)c3C2=O)C(=O)N1 (stereo partly drawn) [I-26, 6-((1,6-naphthyridin-2-yl)amino)-4-(cyclopropylamino)-N-((1r,3r)-3-((2-(2-(2-((2-(2,6-dioxopiperidin-3-yl)-1,3-dioxoisoindolin-4-yl)amino)ethoxy)ethoxy)ethyl)carbamoyl)cyclobutyl)nicotinamide] | C (<20% degradation) |  |  | 
O=C1CCC(N2C(=O)c3cccc(NCCOCCOCCOC[C@H]4C[C@H](NC(=O)c5cnc(Nc6ccc7cnccc7n6)cc5NC5CC5)C4)c3C2=O)C(=O)N1 (stereo partly drawn) [I-31] | C (<20% degradation) |  |  | 
Cc1ncsc1-c1ccc(CNC(=O)C2C[C@@H](O)CN2C(=O)[C@@H](NC(=O)COCCOCCOCCOCCOC(C)(C)C(F)CNC(=O)c2cnc(-n3ncc4cc(C#N)cnc43)cc2NC2CC2)C(C)(C)C)cc1 (stereo partly drawn) [I-118, 6-(5-Cyanopyrazolo[3,4-b]pyridin-1-yl)-4-(cyclopropylamino)-N-[2-fluoro-3-[2-[2-[2-[2-[2-[[(1S)-1-[(4R)-4-hydroxy-2-[[4-(4-methylthiazol-5-yl)phenyl]methylcarbamoyl]pyrrolidine-1-carbonyl]-2,2-dimethyl-propyl]amino]-2-oxo-ethoxy]ethoxy]ethoxy]ethoxy]ethoxy]-3-methyl-butyl]pyridine-3-carboxamide] | C (<20% degradation) |  |  | 
